# ChEMBL document CHEMBL4715908, “Design, synthesis, characterization, and anticancer activity of a novel series of O-substituted chalcone derivatives” (Bioorg Med Chem Lett, 2021)
# Columns and labels:
# CCRF-CEM = assay: Cytotoxicity against human CCRF-CEM cells assessed as reduction in cell viability after 72 hrs by RRA assay; format: functional, cell-based
# [1] = Resistant index, ratio of IC50 for cytotoxicity against human U87MG.deltaEGFR cells to IC50 for cytotoxicity against human U87 cells; format: functional
# HCT-116 [2] = assay: Cytotoxicity against human HCT-116 p53+/+ cells assessed as reduction in cell viability after 72 hrs by RRA assay; format: functional, cell-based; conditions: HCT-116, 72 h
# [3] = Resistant index, ratio of IC50 for cytotoxicity against human MDA-MB-231/BCRP cells to IC50 for cytotoxicity against human MDA-MB-231 pcDNA cells; format: functional
# [4] = Resistant index, ratio of IC50 for cytotoxicity against human CEM/ADR5000 cells to IC50 for cytotoxicity against human CCRF-CEM cells; format: functional
# HCT-116 [5] = assay: Cytotoxicity against human HCT-116 p53-/- cells assessed as reduction in cell viability after 72 hrs by RRA assay; format: functional, cell-based; conditions: HCT-116, 72 h
# U-87 MG = assay: Cytotoxicity against human U87 cells assessed as reduction in cell viability after 72 hrs by RRA assay; format: functional, cell-based, U-87MG ATCC
# [6] = Cytotoxicity against human MDA-MB-231/BCRP cells assessed as reduction in cell viability after 72 hrs by RRA assay; format: functional, cell-based
# [7] = Selectivity index, ratio of IC50 for cytotoxicity against mouse AML12 cells to IC50 for cytotoxicity against human HepG2 cells
# [8] = Resistant index, ratio of IC50 for cytotoxicity against human HCT-116 p53-/- cells to IC50 for cytotoxicity against human HCT-116 p53+/+ cells
# HepG2 [9] = assay: Cytotoxicity against human HepG2 cells assessed as reduction in cell viability after 72 hrs by RRA assay; format: functional, cell-based; conditions: HepG2, 72 h
# [10] = Cytotoxicity against mouse AML12 cells assessed as reduction in cell viability after 72 hrs by RRA assay; format: cell-based; conditions: AML12, 72 h
# MDA-MB-231 = assay: Cytotoxicity against human MDA-MB-231 pcDNA cells assessed as reduction in cell viability after 72 hrs by RRA assay; format: functional, cell-based; conditions: MDA-MB-231, 72 h
# ADR5000 cell line = assay: Cytotoxicity against human CEM/ADR5000 cells assessed as reduction in cell viability after 72 hrs by RRA assay; format: functional, cell-based; conditions: ADR5000, 72 h
# [11] = Cytotoxicity against human U87.deltaEGFR cells assessed as reduction in cell viability after 72 hrs by RRA assay; format: functional, cell-based; conditions: U87MG.deltaEGFR
# MCF7 = assay: Cytotoxicity against human MCF7 cells assessed as reduction in cell viability after 72 hrs by SRB assay; format: functional, cell-based; conditions: MCF7, 72 h
# HL-60 = assay: Cytotoxicity against human HL-60 cells assessed as reduction in cell viability after 72 hrs by SRB assay; format: functional, cell-based; conditions: HL-60, 72 h
# HepG2 [12] = assay: Cytotoxicity against human HepG2 cells assessed as reduction in cell viability after 72 hrs by SRB assay; format: functional, cell-based; conditions: HepG2, 72 h
# DU-145 = assay: Cytotoxicity against human DU-145 cells assessed as reduction in cell viability after 72 hrs by SRB assay; format: functional, cell-based; conditions: DU-145, 72 h
# THP-1 = assay: Cytotoxicity against human THP-1 cells assessed as reduction in cell viability after 72 hrs by SRB assay; format: functional, cell-based; conditions: THP-1, 72 h
# [13] = Resistant index, ratio of IC50 for cytotoxicity against human HCT-116 p53+/+ cells to IC50 for cytotoxicity against human HCT-116 p53-/- cells; format: functional
Compound,IC50 (CCRF-CEM),Ratio IC50 [1],IC50 (HCT-116 [2]),Ratio IC50 [3],Ratio IC50 [4],IC50 (HCT-116 [5]),IC50 (U-87 MG),IC50 [6],Ratio IC50 [7],Ratio IC50 [8],IC50 (HepG2 [9]),IC50 [10],IC50 (MDA-MB-231),IC50 (ADR5000 cell line),IC50 [11],other results
C#CCOc1ccc(C(CC(=O)c2cccc(Br)c2)CC(=O)c2cccc(Br)c2)cc1OC,> 50 µM,–,–,–,–,–,–,–,–,–,–,–,–,–,–,–
C#CCOc1ccc(/C=C/C(=O)c2cccc(Br)c2)cc1OC,15.2 µM,1.61,2.9 µM,0.88,0.15,1.9 µM,2.59 µM,3.09 µM,1.24,0.66,10.1 µM,12.5 µM,3.5 µM,2.28 µM,4.16 µM,–
C#CCOc1ccc(/C=C/C(=O)c2ccc(C)cc2)cc1OC,> 50 µM,–,–,–,–,–,–,–,–,–,–,–,–,–,–,–
C#CCOc1ccc(/C=C/C(=O)c2cccc(OC)c2)cc1OC,5.59 µM,0.91,1.92 µM,0.09,0.2,1.01 µM,1.46 µM,1.23 µM,2.05,0.53,5.54 µM,11.4 µM,13.8 µM,1.1 µM,1.33 µM,–
C#CCOc1ccc(/C=C/C(=O)c2cccc(C)c2)cc1OC,8.82 µM,1.09,1.38 µM,0.87,0.16,1.06 µM,1.8 µM,1.77 µM,2.24,0.77,5.03 µM,11.3 µM,2.03 µM,1.38 µM,1.97 µM,–
C=CCOc1ccc(/C=C/C(=O)c2ccccc2C)cc1OC,–,–,–,–,–,–,–,–,–,–,–,–,–,–,–,IC50 (MCF7): 10.3 µM; IC50 (HL-60): 7.9 µM; IC50 (HepG2 [12]): 10.1 µM; IC50 (DU-145): 5.21 µM; IC50 (THP-1): 4.76 µM
C#CCOc1ccc(/C=C/C(=O)c2cccn2C)cc1OC,> 50 µM,–,–,–,–,–,–,–,–,–,–,–,–,–,–,–
C=CCOc1ccc(C=O)cc1OC,14 µM,0.93,5.77 µM,0.5,0.25,8.02 µM,7.5 µM,7.53 µM,1.46,1.39,10.5 µM,15.3 µM,15 µM,3.48 µM,6.97 µM,–
C#CCOc1ccc(/C=C/C(=O)c2ccccc2C)cc1OC,6.95 µM,0.58,1.66 µM,0.07,0.13,1.06 µM,2.1 µM,0.99 µM,3.11,0.64,2.64 µM,8.2 µM,14.8 µM,0.92 µM,1.21 µM,–
C#CCOc1ccc(C(=O)/C=C/c2ccc(OCC=C)c(OC)c2)cc1CC=C,> 50 µM,–,–,–,–,–,–,–,–,–,–,–,–,–,–,–
C#CCOc1ccc(C(CC(=O)c2cccc(C)c2)CC(=O)c2cccc(C)c2)cc1OC,> 50 µM,–,–,–,–,–,–,–,–,–,–,–,–,–,–,–
C=CCc1cc(C(C)=O)ccc1OCC=C(C)C,16.2 µM,0.94,10.6 µM,0.67,0.32,14 µM,12.9 µM,11.9 µM,1.23,1.31,14.7 µM,18.1 µM,17.9 µM,5.25 µM,12.2 µM,–
C=CCOc1ccc(/C=C/C(=O)c2ccc(OCC=C(C)C)c(CC=C)c2)cc1OC,> 50 µM,–,–,–,–,–,–,–,–,–,–,–,–,–,–,–
C#CCOc1ccc(/C=C/C(=O)c2ccc3c(c2)OCO3)cc1OC,> 50 µM,–,–,–,–,–,–,–,–,–,–,–,–,–,–,–
C=CCOc1ccc(/C=C\C(=O)c2ccc(OCC=C(C)C)c(CC=C)c2)cc1OC,> 50 µM,–,–,–,–,–,–,–,–,–,–,–,–,–,–,–
C#CCOc1ccc(/C=C/C(=O)c2ccn(C)c2)cc1OC,> 50 µM,–,–,–,–,–,–,–,–,–,–,–,–,–,–,–
C#CCOc1ccc(C=O)cc1OC,> 50 µM,–,–,–,–,–,–,–,–,–,–,–,–,–,–,–
C#CCOc1ccc(/C=C/C(=O)c2ccc(C(C)C)cc2)cc1OC,11.8 µM,0.75,3.7 µM,0.72,0.23,3.13 µM,2.84 µM,2.93 µM,1.57,–,6.31 µM,9.91 µM,4.07 µM,2.72 µM,2.12 µM,Ratio IC50 [13]: 0.85
C#CCOc1ccc(/C=C/C(=O)c2ccc(-n3ccnc3)cc2)cc1OC,15 µM,0.77,0.78 µM,0.86,0.07,0.67 µM,1.41 µM,1.74 µM,2.36,0.86,5.39 µM,12.7 µM,2.03 µM,1 µM,1.08 µM,–
C#CCOc1ccc(/C=C/C(=O)c2ccc(CC=C(C)C)cc2)cc1OC,> 50 µM,–,–,–,–,–,–,–,–,–,–,–,–,–,–,–
C#CCOc1ccc(/C=C/C(=O)c2ccc(OC)c(OC)c2)cc1OC,8.65 µM,0.55,2.01 µM,0.14,0.17,0.32 µM,2.86 µM,1.89 µM,1.13,0.16,5.98 µM,6.75 µM,13.6 µM,1.44 µM,1.56 µM,–
C#CCOc1ccc(C(C)=O)cc1CC=C,38.2 µM,–,–,–,–,–,–,–,–,–,–,–,–,–,–,–
COc1cccc2c1C(=O)c1c(O)c3c(c(O)c1C2=O)C[C@@](O)(C(=O)CO)C[C@@H]3O[C@H]1C[C@H](N)[C@H](O)[C@H](C)O1 [DOXORUBICIN],0.02 µM,–,–,–,–,1.78 µM,0.26 µM,0.79 µM,–,–,4.56 µM,52.9 µM,0.13 µM,–,0.98 µM,–
